Marks after values point to notes of the source that are not given here.
How the values were obtained:
[1] = system: IL 1β; assay: IL 1β transcription in peripheral blood leukocytes, real time PCR; assay type: cell-based, rainbow trout (Oncorhynchus mykiss)
Method: (§1) FIG. 4. Expression analysis by real time PCR of the in vitro effect of PACAP38 over the transcription of IL 1β in peripheral blood leukocytes (A) and head kidney (B) of naïve rainbow trout. The effects of PACAP administration at a concentration of 10^−10 M, 10^−9 M and 10^−8 M was evaluated at 48 h post-treatment. The experiment was repeated 4 times. The leukocyte cultures were treated in duplicates and the PCRs were performed in triplicate. Data are expressed as mean of relative expression of IL 1β related to the endogenous elongation factor EF1α±standard deviation (SD).
(§2) We used juvenile rainbow trout (O. mykiss) of approximately 50 g, free of the VHSV and IPNV. Fish (n=5) were anesthetized with methanesulfonic acid salt (Sigma, USA) and peripheral blood from the tail vein was taken aseptically of each fish and then the head kidney was collected. […]
(§3) The levels of IL 1β and IL 15 were evaluated 48 hours after treatment. […]
(§4) For cDNA synthesis was used a commercial kit that use the SuperScript III reverse transcriptase (Invitrogen). Finally, for quantitative PCRs (qPCRs) was used a commercial mixture of PCR: Power SYBR Green PCR Master Mix (Applied Biosystems). […] The results were expressed as 2^−ΔCt, where ΔCt is equal to the remainder of the Ct value of the target gene minus the Ct value of the normalized gene EF 1α.

[2] = system: IL 1β; assay: IL 1β transcription in head kidney leukocytes, real time PCR; assay type: cell-based, rainbow trout (Oncorhynchus mykiss); conditions: 10^−10, 10^−9, 10^−8 M tested, 48 h
Method: as §1, §2, §3, §4

[3] = system: IL 15; assay: IL 15 expression in peripheral blood leukocytes, real time PCR; assay type: cell-based, rainbow trout (Oncorhynchus mykiss)
Method: (§5) FIG. 5. Expression analysis by real time PCR of the in vitro effect of PACAP38 over the transcription of IL 15 in peripheral blood leukocytes (A) and head kidney (B) of neïve rainbow trout. The effects of PACAP administration at a concentration of 10^−10 M, 10^−9 M and 10^−8 M was evaluated at 48 h post-treatment. The experiment was repeated 4 times. The leukocyte cultures were treated in duplicates and the PCRs were performed in triplicates. Data are expressed as the mean of the relative expression of IL 15 related to the endogenous elongation factor EF1α±standard deviation (SD). (*) p<0.05.
as §2, §3, §4

[4] = system: IL 15; assay: IL 15 expression in head kidney leukocytes, real time PCR; assay type: cell-based, rainbow trout (Oncorhynchus mykiss); conditions: 10^−9 M, 48 h, vs negative control
Method: as §5, §2, §3, §4

[5] = system: Ichthyophthirius multifiliis; assay: Survival of channel catfish immunized and challenged with live theronts of I. multifiliis; assay type: in vivo, channel catfish (Ictalurus punctatus); conditions: PACAP immersion baths 100 μg/L, 6 baths of 1 hour, versus immunized fish
Method: An experiment was conducted to evaluate the effect of PACAP administration, after immunization with ciliated parasite theronts I. multifiliis, on survival of channel catfish (I. punctatus). The vaccination and challenge procedure was performed as proposed by Wang and Dickerson ((2002) Clinical and Diagnostic Laboratory Immunology 9 (1), 176-181). Four experimental groups of 25 fish (12±5 g) each one were established:
Group 1: Fish immunized on days 1 and 35 with PBS.
Group 2: Fish immunized on day 1 with 8000 live theronts I. multifiliis and at day 35 with 10,000 living theronts parasite.
Group 3: Fish immunized on day 1 with 8000 live theronts I. multifiliis and at day 35 with 10,000 living theronts parasite. These fish also received by immersion baths the neuropeptide PACAP at a dose of 100 μg of PACAP/L of water. The treatment was performed for 1 hour, on alternate days, in the two weeks prior to challenge (six immersion baths).
Group 4: Fish immunized on day 1 with 8000 live theronts I. multifiliis and at day 35 with 10,000 living theronts parasite. These fish were also subjected to immersion baths for 1 hour without PACA, by a procedure similar to Group 3.
Prior to the immunizations fish were treated with formalin to remove existing ectoparasites. The fish were maintained at 23±2° C. and continuous water flow. At day 84, the fish were challenged with 15 000 theronts. […]

[6] = system: Caligus rogercresseyi; assay: Controlled challenge test with Caligus rogercresseyi in immunized Salmo salar
Method: In this experiment were established six experimental groups of 25 animals (average weight 80 g) each one:
Group 1: Injected IP with PBS
Group 2: Injected IP with PACAP38 at the dose of 1 μg/fish
Group 3: Injected IP with my32 at the dose of 3 μg/g of body weight (gbw)
Group 4: Co-administration by IP injection of my32 at 3 μg/gbw and PACAP at the dose of 1 μg/fish
Group 5: Fish injected IP with my32 at the dose of 3 μg/gbw and fed with 250 μg of PACAP/Kg of feed daily, for one week before and after de immunization with my32.
After 500 arbitrary thermal units, fish were adapted to seawater for two weeks. Subsequently, they were challenged with 2000±200 copepodites to each tank. […] Turnover and filtration was performed manually every 48 hours. At 24 days, fish were anesthetized and killed for parasite counting under a stereomicroscope.

With PACAP38 the “transcription of IL 1β (relative expression to EF1α)” value ([1]; 10^−9 M, 48 h, vs negative control, below the 10^−10 M level) was “stimulatory effect”, the “IL 1β levels (relative expression to EF1α)” value ([1]; 10^−10 M, 48 hours) was “increased” and the “IL1β transcription (relative expression to EF1α)” value [2] was “stimulatory effect only at a dose of 10^−9 M”. For the same substance, the “expression of the IL 15 (relative to EF1α)” value ([3]; 10^−9 M, 48 h) was “stimulatory effect”, the “expression of the IL 15 (relative to EF1α)” value ([3]; 10^−10 M, 48 h (highest values)) was “stimulatory effect” and the “IL 15 expression levels (relative to EF1α)” value [4] was “statistically higher than the negative control group”. The “increase in survival of immunized fish simultaneously treated with PACAP” value [5] was 27%, the “Inhibition of the infestation (%)” value ([6]; 24 days post-challenge, (1 − T/C) × 100 versus placebo group) was 22% and the Number of parasites/fish ([6]; S. salar, 24 days post-challenge with C. rogercresseyi, PACAP 1 μg/fish IP or 250 μg/Kg feed, my32 3 μg/gbw IP) was 29 ± 5^b.

Reference: patent US9549977B2 (priority 2011, dated 2017)
